Values after ≈ are worked out from the molar mass of the structure shown. Blank lines part the entries; values can stand above or below the compound they belong to. Peptide text beside a SMILES is read from it. * marks the point of attachment. C18 diacid = O=C(O)CCCCCCCCCCCCCCCCC(=O)*
Tests used:
[1] = Solubility in 100 mM glycylglycine buffer at pH 3.0 incubated for 18 hrs by UPLC analysis; type: physicochemical
[2] = Solubility in 100 mM bistrispropane buffer at pH 6.0 incubated for 18 hrs by UPLC analysis; type: physicochemical
[3] = Solubility in 100 mM glycylglycine buffer at pH 5.0 incubated for 18 hrs by UPLC analysis; type: physicochemical
[4] = Solubility in 100 mM bistrispropane buffer at pH 6.5 incubated for 18 hrs by UPLC analysis; type: physicochemical
[5] = Solubility in 100 mM bistrispropane buffer at pH 7.0 incubated for 18 hrs by UPLC analysis; type: physicochemical
[6] = Solubility in 100 mM bistrispropane buffer at pH 7.5 incubated for 18 hrs by UPLC analysis; type: physicochemical
[7] = Solubility in 100 mM bistrispropane buffer at pH 8.0 incubated for 18 hrs by UPLC analysis; type: physicochemical
[8] = target: T1, Amylin receptor AMY3; CALCR/RAMP3 (Homo sapiens, UniProt O60896+P30988); test: Agonist activity at human amylin receptor expressed in BHK570 cells co-expressing RAMP3 assessed as increase in intracellular cAMP concentration incubated for 3 hrs in absence of albumin by CRE luciferase reporter gene assay; type: functional, cell-based
T1 sequence (P30988 whole entry): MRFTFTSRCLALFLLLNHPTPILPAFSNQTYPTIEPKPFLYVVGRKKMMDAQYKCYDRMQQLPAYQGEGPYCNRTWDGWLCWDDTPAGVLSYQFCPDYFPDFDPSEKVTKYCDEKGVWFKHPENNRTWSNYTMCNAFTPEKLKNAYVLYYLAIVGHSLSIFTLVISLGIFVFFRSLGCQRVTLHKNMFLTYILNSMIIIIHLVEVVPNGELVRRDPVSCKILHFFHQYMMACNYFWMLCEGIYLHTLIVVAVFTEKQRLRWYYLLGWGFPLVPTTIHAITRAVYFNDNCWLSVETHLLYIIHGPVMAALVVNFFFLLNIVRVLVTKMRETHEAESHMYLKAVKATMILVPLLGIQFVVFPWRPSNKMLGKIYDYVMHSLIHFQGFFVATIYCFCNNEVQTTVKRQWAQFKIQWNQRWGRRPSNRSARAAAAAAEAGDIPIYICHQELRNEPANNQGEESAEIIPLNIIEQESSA
T1 sequence (O60896 whole entry): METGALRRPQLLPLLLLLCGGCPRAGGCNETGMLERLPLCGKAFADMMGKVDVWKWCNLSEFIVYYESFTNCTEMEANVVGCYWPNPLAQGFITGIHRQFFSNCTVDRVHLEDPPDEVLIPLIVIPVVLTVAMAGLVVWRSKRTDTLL

[9] = target: T2, Calcitonin receptor (Homo sapiens, UniProt P30988); test: Agonist activity at human calcitonin receptor expressed in BHK570 cells assessed as increase in intracellular cAMP concentration incubated for 3 hrs in absence of albumin by CRE luciferase reporter gene assay; type: functional, cell-based
T2 sequence (P30988 whole entry): T1 sequence (P30988 whole entry)

Compound: CC(C)C[C@H](NC(=O)[C@H](CCCNC(=N)N)NC(=O)CNC(=O)[C@H](CC(C)C)NC(=O)[C@@H](NC(=O)[C@H](C)NC(=O)[C@@H](NC(=O)[C@H](CO)NC(=O)[C@H](CC(C)C)NC(=O)[C@H](CCC(=O)O)NC(=O)[C@H](CO)NC(=O)[C@H](C)NC(=O)CC[C@H](NC(=O)CCCCCCCCCCCCCCCCCCC(=O)O)C(=O)O)[C@@H](C)O)C(C)C)C(=O)N[C@@H](CO)C(=O)N[C@@H](CCC(N)=O)C(=O)N[C@@H](CCC(=O)O)C(=O)N[C@@H](CC(C)C)C(=O)N[C@@H](Cc1cnc[nH]1)C(=O)N[C@@H](CCC(=O)O)C(=O)N[C@@H](CC(C)C)C(=O)N[C@@H](CCC(N)=O)C(=O)N[C@H](C(=O)N[C@@H](Cc1ccc(O)cc1)C(=O)N1CCC[C@H]1C(=O)N[C@@H](CCCNC(=N)N)C(=O)N[C@H](C(=O)N[C@@H](CCC(=O)O)C(=O)N[C@H](C(=O)NCC(=O)N[C@@H](CO)C(=O)NCC(=O)N[C@H](C(=O)N[C@@H](Cc1ccc(O)cc1)C(N)=O)[C@@H](C)O)[C@@H](C)O)[C@@H](C)O)[C@H](C)O
- solubility at 18 h [1]: ≥ 200 µM
- solubility at 18 h [2]: ≥ 200 µM
- solubility at 18 h [3]: 7 µM (≈ 27.6 µg/mL)
- solubility at 18 h [4]: ≥ 200 µM
- solubility at 18 h [5]: ≥ 200 µM
- solubility at 18 h [6]: ≥ 200 µM
- solubility at 18 h [7]: ≥ 200 µM

Compound: CC(C)C[C@H](NC(=O)[C@H](C)NC(=O)[C@H](C)NC(=O)[C@@H](NC(=O)[C@H](CO)NC(=O)[C@H](CC(C)C)NC(=O)[C@H](CCC(=O)O)NC(=O)[C@H](CO)NC(=O)[C@H](C)NC(=O)[C@H](CCC(=O)O)NC(=O)CCCCCCCCCCCCCCCCC(=O)O)[C@@H](C)O)C(=O)NCC(=O)N[C@@H](CCCNC(=N)N)C(=O)N[C@@H](CC(C)C)C(=O)N[C@@H](CO)C(=O)N[C@@H](C)C(=O)N[C@@H](CCC(=O)O)C(=O)N[C@@H](CC(C)C)C(=O)N[C@@H](Cc1cnc[nH]1)C(=O)N[C@@H](CCC(=O)O)C(=O)N[C@@H](CC(C)C)C(=O)N[C@@H](C)C(=O)N[C@H](C(=O)N[C@@H](Cc1ccc(O)cc1)C(=O)N1CCC[C@H]1C(=O)N[C@@H](CCCNC(=N)N)C(=O)N[C@H](C(=O)N[C@@H](CCC(=O)O)C(=O)N[C@H](C(=O)NCC(=O)N1CCC[C@H]1C(=O)N[C@@H](CCC(=O)O)C(=O)N[C@@H](CO)C(=O)N1CCC[C@H]1C(N)=O)[C@@H](C)O)[C@@H](C)O)[C@@H](C)O ({C18 diacid}-EASELSTAALGRLSAELHELATYPRTETGPESP-NH2)
- EC50 [8]: 11 pM
- EC50 [9]: 7 pM

Compound: CC(C)C[C@H](NC(=O)[C@H](CCCNC(=N)N)NC(=O)CNC(=O)[C@H](CC(C)C)NC(=O)[C@@H](NC(=O)[C@H](C)NC(=O)[C@@H](NC(=O)[C@H](CO)NC(=O)[C@@H](NC(=O)[C@H](CCC(=O)O)NC(=O)[C@H](CO)NC(=O)[C@H](C)NC(=O)[C@H](CCC(=O)O)NC(=O)CCCCCCCCCCCCCCCCC(=O)O)C(C)C)[C@@H](C)O)C(C)C)C(=O)N[C@@H](CO)C(=O)N[C@@H](C)C(=O)N[C@@H](CCC(=O)O)C(=O)N[C@@H](CC(C)C)C(=O)N[C@@H](Cc1cnc[nH]1)C(=O)N[C@@H](CCC(=O)O)C(=O)N[C@H](C(=O)N[C@@H](C)C(=O)N[C@H](C(=O)N[C@@H](CC(C)C)C(=O)N1CCC[C@H]1C(=O)N[C@@H](CCCNC(=N)N)C(=O)N[C@H](C(=O)N[C@@H](CCC(=O)O)C(=O)N[C@H](C(=O)NCC(=O)N1CCC[C@H]1C(=O)N[C@@H](CCC(=O)O)C(=O)N[C@@H](CO)C(=O)N1CCC[C@H]1C(N)=O)[C@@H](C)O)[C@@H](C)O)[C@@H](C)O)C(C)C ({C18 diacid}-EASEVSTAVLGRLSAELHEVATLPRTETGPESP-NH2)
- EC50 [8]: 23 pM
- EC50 [9]: 54 pM
- solubility at 18 h [2]: ≥ 200 µM
- solubility at 18 h [4]: ≥ 200 µM
- solubility at 18 h [5]: ≥ 200 µM
- solubility at 18 h [6]: ≥ 200 µM
- solubility at 18 h [7]: ≥ 200 µM

Continued, values first:

- solubility at 18 h [1]: ≥ 200 µM
- solubility at 18 h [2]: ≥ 200 µM
- solubility at 18 h [3]: ≥ 200 µM
- solubility at 18 h [4]: ≥ 200 µM
- solubility at 18 h [5]: ≥ 200 µM
- solubility at 18 h [6]: ≥ 200 µM
- solubility at 18 h [7]: ≥ 200 µM
Compound: CC[C@@H](C)[C@H](NC(=O)[C@H](C)NC(=O)[C@@H](NC(=O)[C@H](CO)NC(=O)[C@@H](NC(=O)[C@H](CCC(=O)O)NC(=O)[C@H](CO)NC(=O)[C@H](C)NC(=O)[C@H](CCC(=O)O)NC(=O)CCCCCCCCCCCCCCCCC(=O)O)[C@H](C)CC)[C@@H](C)O)C(=O)N[C@@H](CC(C)C)C(=O)NCC(=O)N[C@@H](CCCNC(=N)N)C(=O)N[C@@H](CC(C)C)C(=O)N[C@@H](CO)C(=O)N[C@@H](C)C(=O)N[C@@H](CCC(=O)O)C(=O)N[C@@H](CC(C)C)C(=O)N[C@@H](Cc1cnc[nH]1)C(=O)N[C@@H](CCC(=O)O)C(=O)N[C@@H](CC(C)C)C(=O)N[C@@H](C)C(=O)N[C@H](C(=O)N[C@@H](CC(C)C)C(=O)N1CCC[C@H]1C(=O)N[C@@H](CCCNC(=N)N)C(=O)N[C@H](C(=O)N[C@@H](CCC(=O)O)C(=O)N[C@H](C(=O)NCC(=O)N1CCC[C@H]1C(=O)N[C@@H](CCC(=O)O)C(=O)N[C@@H](CO)C(=O)N1CCC[C@H]1C(N)=O)[C@@H](C)O)[C@@H](C)O)[C@@H](C)O

- EC50 [8]: 10 pM
- EC50 [9]: 5 pM
- solubility at 18 h [1]: ≥ 200 µM
- solubility at 18 h [2]: ≥ 200 µM
- solubility at 18 h [3]: ≥ 200 µM
- solubility at 18 h [4]: ≥ 200 µM
- solubility at 18 h [5]: ≥ 200 µM
- solubility at 18 h [6]: ≥ 200 µM
- solubility at 18 h [7]: ≥ 200 µM
Compound: CC[C@H](C)[C@H](NC(=O)[C@H](C)NC(=O)[C@@H](NC(=O)[C@H](CO)NC(=O)[C@@H](NC(=O)[C@H](CCC(=O)O)NC(=O)[C@H](CO)NC(=O)[C@H](C)NC(=O)[C@H](CCC(=O)O)NC(=O)CCCCCCCCCCCCCCCCC(=O)O)[C@@H](C)CC)[C@@H](C)O)C(=O)N[C@H](C(=O)NCC(=O)N[C@@H](CCCNC(=N)N)C(=O)N[C@@H](CC(C)C)C(=O)N[C@@H](CO)C(=O)N[C@@H](C)C(=O)N[C@@H](CCC(=O)O)C(=O)N[C@@H](CC(C)C)C(=O)N[C@@H](Cc1cnc[nH]1)C(=O)N[C@@H](CCC(=O)O)C(=O)N[C@@H](CC(C)C)C(=O)N[C@@H](C)C(=O)N[C@H](C(=O)N[C@@H](CC(C)C)C(=O)N1CCC[C@H]1C(=O)N[C@@H](CCCNC(=N)N)C(=O)N[C@H](C(=O)N[C@@H](CCC(=O)O)C(=O)N[C@H](C(=O)NCC(=O)N1CCC[C@H]1C(=O)N[C@@H](CCC(=O)O)C(=O)N[C@@H](CO)C(=O)N1CCC[C@H]1C(N)=O)[C@@H](C)O)[C@@H](C)O)[C@@H](C)O)[C@@H](C)CC ({C18 diacid}-EASEISTAIIGRLSAELHELATLPRTETGPESP-NH2)

From ChEMBL document CHEMBL4420076, “Amylin and calcitonin receptor agonist” (2017)
